These results are taken from US20070110804A1, “Drug polymer complexes” (ROYER BIOMEDICAL, INC., priority 2003, published 2007).

A short description of data set [1]: Formation of a low-solubility polymer/drug complex (gel) on mixing polyanion sodium salt with the salt of the active ingredient. The text has this:
A “yes” entry means that a complex of low solubility forms on mixing the sodium salt of the polymers and the salt of the active ingredient.

Data set [2] can be described thus: Distribution of amikacin between gelatinous precipitate and supernatant on mixing amikacin sulfate with dextran sulfate (Na). To be noted: amikacin sulfate solution mixed with dextran sulfate (Na) solution. Type of data set: physicochemical.
Text: As part of the normal preparation of a solid dosage form based on calcium sulfate, a solution of amikacin sulfate was mixed with a solution of dextran sulfate (Na).
The test system of another data set is S. Aureus. The note with it: cited from earlier work.
The test system of the next data set is E. Coli. To be noted: cited from earlier work.
The subject of the next data set is Enterobacter spp. To be noted: cited from earlier work.
Another data set has as its system P. Aeruginosa. To be noted: cited from earlier work.
Data set [3] can be described thus: In vitro release profile of the drug polymer complex in PBS at 37° C. The data set is classed as physicochemical. To be noted: ½ dextran sulfate Mw 40,000 (40,000-50,000) and ½ Mw 500,000, FIG. 6. The protocol: Release profile: Dextran sulfate/amikacin wet gel (100 mg) was placed in 2 ml centrifuge tube. PBS buffer (500 μl) was added to the centrifuged tube. After incubation at 37° C. for 24 hrs, the mixture was centrifuged at 13,000 RPM for 5 minutes. The supernatant was removed and analyzed microbiologically for the presence of drug. The process was repeated at 24 hr intervals for 31 days. The amount of released drug in the eluate was calculated from a standard curve.
The release profile is illustrated in FIG. 1. The release profiles for the compounds of the other Figures were generated in a similar manner.

Setting [4] is: mixing sodium salt of Dextran Sulfate-500 and salt of the active ingredient.
Setting [5] is: mixing sodium salt of CMC-L (low viscosity carboxymethylcellulose) and salt of the active ingredient.
The mark [6] stands for this setting: mixing sodium salt of CMC-M (medium viscosity carboxymethylcellulose) and salt of the active ingredient.

In brackets after ≈: the same amount, converted by molar mass. Like-named read-outs stand apart in the source and are kept apart here. Bounds are passed on as bounds.

As for `NCC[C@H](O)C(=O)N[C@@H]1C[C@H](N)[C@@H](O[C@H]2O[C@H](CN)[C@@H](O)[C@H](O)[C@H]2O)[C@H](O)[C@H]1O[C@H]1O[C@H](CO)[C@@H](O)[C@H](N)[C@H]1O` [Amikacin], the “complex of low solubility forms (yes/no), polymer CMC-L” value (from here on “complex … (yes/no), polymer CMC-L”) in data set [1] was “no”. The “complex of low solubility forms (yes/no), polymer Dextran Sulfate-500” value (shortened to “complex … (yes/no), polymer Dextran Sulfate-500”) in data set [1] is given as “yes”. Also, in data set [2], the “amikacin included in the gelatinous precipitate” value is on record as above 90%. Further, in data set [2], the “amikacin remaining in the supernatant” value was below 10%. The MIC was 1 µg/mL (≈ 1.71 µM) in the data set with S. Aureus, 2 µg/mL (≈ 3.42 µM) in the data set on E. Coli, 2 µg/mL (≈ 3.42 µM) in the data set on Enterobacter spp. and 2 µg/mL (≈ 3.42 µM) in the data set on P. Aeruginosa.

In the case of `CN1CCc2cccc3c2[C@H]1Cc1ccc(O)c(O)c1-3` [Apomorphine], the “complex … (yes/no), polymer Dextran Sulfate-500” value in data set [1] (setting [4]) was “yes”.

`CN(C)CCCN1c2ccccc2Sc2ccc(Cl)cc21` [Chlorpromazine]: in data set [1], the “complex … (yes/no), polymer CMC-L” value is “yes”; the “complex of low solubility forms (yes/no), polymer CMC-M” value (“complex … (yes/no), polymer CMC-M” below) is listed as “yes”; the “complex … (yes/no), polymer Dextran Sulfate-500” value is on record as “yes”.

Regarding `CCCCOc1cc(C(=O)NCCN(CC)CC)c2ccccc2n1` [Dibucaine], in data set [1] (setting [5]), the “complex … (yes/no), polymer CMC-L” value is “yes”. In data set [1] (setting [6]), the “complex … (yes/no), polymer CMC-M” value is listed as “yes”. Besides, the “complex … (yes/no), polymer Dextran Sulfate-500” value in data set [1] (setting [4]) is “yes”.

`COc1cccc2c1C(=O)c1c(O)c3c(c(O)c1C2=O)C[C@@](O)(C(=O)CO)C[C@@H]3O[C@H]1C[C@H](N)[C@H](O)[C@H](C)O1` [Doxorubicin]: the “complex … (yes/no), polymer CMC-L” value in data set [1] (setting [5]) is “yes”. Moreover, the “complex … (yes/no), polymer CMC-M” value in data set [1] (setting [6]) was “yes”. Also, the “complex … (yes/no), polymer Dextran Sulfate-500” value in data set [1] (setting [4]) is “yes”.

On to `C[C@H]1c2cccc(O)c2C(=O)C2=C(O)[C@]3(O)C(=O)C(C(N)=O)=C(O)[C@@H](N(C)C)[C@@H]3[C@@H](O)[C@@H]21` [Doxycycline], for which the “complex … (yes/no), polymer CMC-L” value in data set [1] (setting [5]) is listed as “yes”. In data set [1] (setting [6]), the “complex … (yes/no), polymer CMC-M” value is reported as “yes”. Further, the “complex … (yes/no), polymer Dextran Sulfate-500” value in data set [1] (setting [4]) was “yes”.

As to `CC[C@H]1OC(=O)[C@H](C)[C@@H](O[C@H]2C[C@@](C)(OC)[C@@H](O)[C@H](C)O2)[C@H](C)[C@@H](O[C@@H]2O[C@H](C)C[C@H](N(C)C)[C@H]2O)[C@](C)(O)C[C@@H](C)C(=O)[C@H](C)[C@@H](O)[C@]1(C)O` [Erythromycin], in data set [1], the “complex … (yes/no), polymer CMC-L” value is listed as “no”; the “complex … (yes/no), polymer CMC-M” value is listed as “no”; the “complex … (yes/no), polymer Dextran Sulfate-500” value is given as “yes”.

Consider `CCC(=O)C(CC(C)N(C)C)(c1ccccc1)c1ccccc1` (stereo not drawn) [Methadone], for which the “complex … (yes/no), polymer CMC-L” value in data set [1] (setting [5]) was “no”. Also, the “complex … (yes/no), polymer CMC-M” value in data set [1] (setting [6]) is reported as “no”. Moreover, the “complex … (yes/no), polymer Dextran Sulfate-500” value in data set [1] (setting [4]) is listed as “yes”.

In the case of `O=C1CC[C@@]2(O)[C@H]3Cc4ccc(O)c5c4[C@@]2(CCN3CC2CC2)[C@H]1O5` [Naltrexone], the “complex … (yes/no), polymer CMC-L” value in data set [1] (setting [5]) was “no”. The “complex … (yes/no), polymer CMC-M” value in data set [1] (setting [6]) is “no”. Moreover, the “complex … (yes/no), polymer Dextran Sulfate-500” value in data set [1] (setting [4]) is “yes”.

`COc1ccc2c3c1O[C@H]1C(=O)CC[C@@]4(O)[C@@H](C2)N(C)CC[C@]314` [Oxycodone]: in data set [1] (setting [4]), the “complex … (yes/no), polymer Dextran Sulfate-500” value is on record as “yes”. In addition, the “release rate compared to all (500,000) dextran sulfate complex” value in data set [3] is given as “increases the release rate”; in data set [3] (listed as oxycodone), “accelerated”.

Take `CN(C)[C@@H]1C(O)=C(C(N)=O)C(=O)[C@@]2(O)C(O)=C3C(=O)c4c(O)cccc4[C@@](C)(O)[C@H]3[C@H](O)[C@@H]12` [Oxytetracycline]: in data set [1], the “complex … (yes/no), polymer CMC-L” value was “yes”; the “complex … (yes/no), polymer CMC-M” value is “yes”; the “complex … (yes/no), polymer Dextran Sulfate-500” value is “yes”.

On to `CCCNC(C)C(=O)Nc1ccccc1C` (stereo not drawn) [Prilocaine], for which the “complex … (yes/no), polymer Dextran Sulfate-500” value in data set [1] is reported as “yes”.

As to `CCN(CC)CCOC(=O)c1ccc(N)cc1` [Procaine], the “complex … (yes/no), polymer Dextran Sulfate-500” value in data set [1] (setting [4]) is on record as “yes”.

`[H]/N=C(/N)N[C@H]1[C@H](O)[C@@H](O)[C@H](O[C@@H]2O[C@@H](C)[C@](O)(C=O)[C@H]2O[C@@H]2O[C@@H](CO)[C@H](O)[C@@H](O)[C@@H]2NC)[C@@H](N/C(N)=N\[H])[C@@H]1O` [Streptomycin]: the “complex … (yes/no), polymer Dextran Sulfate-500” value in data set [1] (setting [4]) is reported as “yes”.

In the case of `CCCCNc1ccc(C(=O)OCCN(C)C)cc1` [Tetracaine], in data set [1] (setting [5]), the “complex … (yes/no), polymer CMC-L” value was “yes”. For the same compound, the “complex … (yes/no), polymer CMC-M” value in data set [1] (setting [6]) is listed as “yes”. For the same compound, the “complex … (yes/no), polymer Dextran Sulfate-500” value in data set [1] (setting [4]) was “yes”.

For `NC[C@H]1O[C@H](O[C@H]2[C@H](O)[C@@H](O[C@H]3O[C@H](CO)[C@@H](O)[C@H](N)[C@H]3O)[C@H](N)C[C@@H]2N)[C@H](N)C[C@@H]1O` [Tobramycin], the “complex … (yes/no), polymer Dextran Sulfate-500” value in data set [1] (setting [4]) is “yes”.

On to `CN[C@H](CC(C)C)C(=O)N[C@H]1C(=O)N[C@@H](CC(N)=O)C(=O)N[C@H]2C(=O)N[C@H]3C(=O)N[C@H](C(=O)N[C@H](C(=O)O)c4cc(O)cc(O)c4-c4cc3ccc4O)[C@H](O)c3ccc(c(Cl)c3)Oc3cc2cc(c3O[C@@H]2O[C@H](CO)[C@@H](O)[C@H](O)[C@H]2O[C@H]2C[C@](C)(N)[C@H](O)[C@H](C)O2)Oc2ccc(cc2Cl)[C@H]1O` [Vancomycin], for which, in data set [1], the “complex … (yes/no), polymer CMC-L” value is reported as “yes” and the “complex … (yes/no), polymer Dextran Sulfate-500” value is “yes”.

Take Neomycin: in data set [1] (setting [5]), the “complex … (yes/no), polymer CMC-L” value is “no”. The “complex … (yes/no), polymer CMC-M” value in data set [1] (setting [6]) was “no”. For the same compound, the “complex … (yes/no), polymer Dextran Sulfate-500” value in data set [1] (setting [4]) is listed as “yes”.
